Experimental data from paper PMC6127857 (Journal of structural biology, 2018).

Key:
AmpKR2 [1] = target: AmpKR2 (Streptomyces nodosus, UniProt Q93NW7); experiment: X-ray crystal structure, […] Å, co-crystallised; format: binding; conditions: ternary complex with 2-methyl-3-oxopentanoyl-pantetheine; 3 mM NADP+
AmpKR2 [2] = target: AmpKR2 (Streptomyces nodosus, UniProt Q93NW7, G2883T/Q2892H); experiment: X-ray crystal structure, […] Å, co-crystallised; format: binding; conditions: ternary complex with 2-methyl-3-oxopentanoyl-pantetheine; 3 mM NADP+

**Q.** For `NC(=O)c1ccc[n+]([C@@H]2O[C@H](COP(=O)(O)OP(=O)(O)OC[C@H]3O[C@@H](n4cnc5c(N)ncnc54)[C@H](OP(=O)(O)O)[C@@H]3O)[C@@H](O)[C@H]2O)c1` [NADP^+], which “X-ray crystal structure, 1.80 Å, co-crystallised” value (AmpKR2 [1]) is on record?
**A.** The value was “well-defined electron density for NADP^+ and 2-methyl-3-oxopentanoyl-pantetheine was observed in the active sites”.

**Q.** And the “X-ray crystal structure, 1.96 Å, co-crystallised” value (AmpKR2 [2])?
**A.** Its value is “both wild type AmpKR2 and its G355T/Q364H mutant”.
